Drawing on ChEMBL document CHEMBL1777704, “Identification and synthesis of N'-(2-oxoindolin-3-ylidene)hydrazide derivatives against c-Met kinase” (Bioorg Med Chem Lett, 2011), this text covers IC50 for eleven compounds.

Structures are written as SMILES.

Hepatocyte growth factor receptor, sequence (P08581 whole entry): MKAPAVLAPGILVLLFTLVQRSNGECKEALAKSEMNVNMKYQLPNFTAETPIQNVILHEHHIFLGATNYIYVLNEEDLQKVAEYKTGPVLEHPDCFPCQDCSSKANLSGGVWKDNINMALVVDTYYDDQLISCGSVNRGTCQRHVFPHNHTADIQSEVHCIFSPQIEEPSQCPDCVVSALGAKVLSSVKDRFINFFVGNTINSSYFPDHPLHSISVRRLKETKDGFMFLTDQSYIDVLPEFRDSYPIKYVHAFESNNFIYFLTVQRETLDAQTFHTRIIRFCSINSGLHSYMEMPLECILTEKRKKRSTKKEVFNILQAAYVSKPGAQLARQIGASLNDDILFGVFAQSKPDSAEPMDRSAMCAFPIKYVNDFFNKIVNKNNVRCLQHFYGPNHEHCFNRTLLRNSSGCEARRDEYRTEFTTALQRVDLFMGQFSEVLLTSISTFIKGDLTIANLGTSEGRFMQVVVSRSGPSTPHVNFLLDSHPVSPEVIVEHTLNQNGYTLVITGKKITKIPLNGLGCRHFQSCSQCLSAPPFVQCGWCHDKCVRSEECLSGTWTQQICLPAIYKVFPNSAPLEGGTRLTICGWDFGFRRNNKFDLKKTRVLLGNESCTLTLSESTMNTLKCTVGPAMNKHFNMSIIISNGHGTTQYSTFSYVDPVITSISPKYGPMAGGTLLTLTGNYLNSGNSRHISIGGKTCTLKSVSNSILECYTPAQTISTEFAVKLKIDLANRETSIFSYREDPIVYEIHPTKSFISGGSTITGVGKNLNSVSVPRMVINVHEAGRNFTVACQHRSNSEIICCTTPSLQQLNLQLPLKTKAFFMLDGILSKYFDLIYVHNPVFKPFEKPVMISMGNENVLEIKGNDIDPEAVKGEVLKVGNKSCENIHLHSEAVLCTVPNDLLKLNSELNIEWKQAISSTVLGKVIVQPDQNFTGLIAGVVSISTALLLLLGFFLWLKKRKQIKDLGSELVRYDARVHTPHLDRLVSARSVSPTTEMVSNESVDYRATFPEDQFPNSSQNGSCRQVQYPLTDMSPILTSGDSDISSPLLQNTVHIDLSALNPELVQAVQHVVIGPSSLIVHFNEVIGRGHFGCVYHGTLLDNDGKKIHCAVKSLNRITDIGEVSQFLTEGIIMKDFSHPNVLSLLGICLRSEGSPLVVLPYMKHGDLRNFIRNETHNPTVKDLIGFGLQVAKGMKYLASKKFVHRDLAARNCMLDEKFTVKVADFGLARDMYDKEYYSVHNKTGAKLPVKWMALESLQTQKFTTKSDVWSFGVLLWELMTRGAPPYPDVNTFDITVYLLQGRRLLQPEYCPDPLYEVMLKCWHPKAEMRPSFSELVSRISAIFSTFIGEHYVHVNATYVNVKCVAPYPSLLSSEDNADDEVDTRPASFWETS

The assay has as its target Hepatocyte growth factor receptor (Homo sapiens, UniProt P08581). Briefly: Inhibition of purified c-Met using poly(glu,tyr) as substrate after 60 mins by ELISA.
Regarding `O=[N+]([O-])c1cc(-c2ccc(/C=N\n3cnnc3N/N=C/c3ccc(-c4ccc(Cl)c([N+](=O)[O-])c4)o3)o2)ccc1Cl`, the IC50 is 3.3 µM.
With `O=C(CCCCCC(=O)N/N=C/c1cc2c(cc1[N+](=O)[O-])OCO2)N/N=C/c1cc2c(cc1[N+](=O)[O-])OCO2` the figure was 0.78 µM; with `O=C(N/N=C1\C(=O)N(CN2CCOCC2)c2ccc(Br)cc21)c1ccccc1`, 3.5 µM.
Take `COc1ccc(C(=O)N/N=C2\C(=O)N(CN3CCOCC3)c3ccc(Br)cc32)cc1`: the IC50 came out at 2.2 µM.
The figure for `O=C1Nc2ccccc2/C1=N/NC(=O)c1cc2ccccc2cc1O` is 4.3 µM.
The figure for `Cc1cccc(C(=O)Nc2ccc(C(=O)N/N=C3\C(=O)Nc4ccccc43)cc2)c1` is 1.3 µM.
With `CN1C(=O)/C(=N\NC(=O)c2ccc([N+](=O)[O-])cc2)c2ccccc21` the figure was 12.3 µM; with `Cc1ccc(NC(=O)CN2C(=O)/C(=N\NC(=O)c3ccc(N)cc3)c3ccccc32)cc1`, 15.8 µM; with `COc1ccc(C(=O)COC(=O)c2ccc3c(c2)C(=O)N(c2ccc(C(C)=O)cc2)C3=O)cc1`, 3.7 µM.
`CN1C(=O)/C(=N\NC(=O)c2cccc(C(=O)N/N=C3/C(=O)N(C)c4ccccc43)c2)c2ccccc21` yielded an IC50 of 10.3 µM.
In turn, `O=C1Nc2ccccc2C1=NNC(=O)c1ccc([N+](=O)[O-])cc1` had an IC50 of 28.3 µM.
